In PubChem BioAssay AID2060908 (Molecular Pharmacology Branch, DTP, NCI, 2025):

Tested on: 186277-243-T-J2-PDC complex spheroids, viability
Assay: Anticancer human tumor 186277-243-T-J2-PDC patient-derived colon adenocarcinoma cell line growth inhibition [RAS]
Conditions: for IC50: curve of first compound; for viability, T/C: stronger effect = lower value
Description: RAS pathway inhibitors in Combinations in Complex Spheroids
A high-throughput screen of multi-cell type tumor spheroids was designed to identify active combinations of RAS pathway inhibitors and targeted small molecules. Complex spheroids include a stromal component modeled by human endothelial cells (HUVEC) and fibroblasts modeled by human mesenchymal stem cells (MSCs). The concentration ranges selected for each drug and investigational agent were based upon clinically achievable concentrations if the clinical Cmax of the agent was known.
Compounds. The drugs and investigational agents: abemaciclib (NSC768073), cobimetinib (NSC768068), divarasib (GDC6063, NSC841802), docetaxel (NSC628503), GDC-1971 (RLY-1971, NSC841576), gemcitabine (NSC613327), inavolisib (NSC800729), ipatasertib (NSC767898), KB-0742 (NSC834161), MRTX-1133 (NSC836407), osimertinib (NSC779217), RMC-4630 (NSC839698), RMC-6236 (NSC851965), RMC-6291 (NSC852671), Ro-3306 (NSC812927), sapanisertib (NSC764658), SN-38 (NSC673596), staurosporine (NSC755774), SY5609 (NSC837396), and tovorafenib (DAY101, NSC766906), were obtained from the National Cancer Institute (NCI) Developmental Therapeutics Program Chemical Repository. The FDA-approved anticancer drug set is available from the NCI Developmental Therapeutics Program. […] The stock solutions were prepared in dimethyl sulfoxide (DMSO, Sigma-Aldrich, St. Louis, MO, cat. D2650) at 800-fold the tested concentration and stored at -70 degrees C prior to their use. All drugs and investigational agents were tested over a range starting from a high concentration at or near the clinical Cmax and decreasing in half-log increments. If the clinical Cmax for an agent had not been determined, the highest concentration tested was 10 microM.
Cell Culture. All cells were maintained in an incubator at 37 degrees C and 5% CO2 with 95% humidity. The PDC lines were cultured according to standard operating procedures established by the NCI PDMR. All PDCs were thawed and cultured in Matrigel-coated flasks prepared with a working solution of 1X Ham's F-12 nutrient mix, without supplementation (Invitrogen, Waltham, MA, cat. 11765054), 100 U/mL penicillin-streptomycin (Invitrogen, cat. 15140122), and 2.5% Matrigel (Corning Inc., Corning, NY, cat. 354248) for the first three passages. The 362531-283-R-J2-PDC and 782815-120-R-J1-PDC lines were cultured in 6C/Colon 1B media, which includes advanced DMEM/F-12 (Thermo Fisher Scientific, cat. 12634028), 10 mM HEPES (Thermo Fisher Scientific, cat. 15630080), 1X GlutaMAX supplement (Thermo Fisher Scientific, cat. 35050061), 0.1 mg/mL primocin (InvivoGen, San Diego, CA, cat. ant-pm-2), 10% defined fetal bovine serum, heat inactivated (HyClone Laboratories Inc., Logan, UT, cat. SH30070.03HI), 50% L-WRN conditioned media (ATCC, cat. CRL-3276), 1.25 mM N-Acetyl-L-cysteine (Sigma-Aldrich, cat. A9165), 10 mM nicotinamide (Sigma-Aldrich, cat. N0636), 1X B-27 supplement (Thermo Fisher Scientific, cat. 17504044), 1X N-2 supplement (Thermo Fisher Scientific, cat. 17502048), 50 ng/mL human EGF (Thermo Fisher Scientific, cat. PHG0311), and 10 microM Y-27632 dihydrochloride (Tocris Bioscience, cat. 1254). The K12877-001-R-J1-PDC line was cultured in 6I media, which includes all 6C/Colon 1B media plus 10 ng/mL human FGF-10 (PeproTech, cat. 100-26), 1 ng/mL human FGF-2 (PeproTech, cat. 100-18B), 1 µM prostaglandin E2 (Tocris Bioscience, cat. 2296), […] hydrocortisone (Sigma-Aldrich, cat. H4001), and […] bovine insulin (Sigma-Aldrich, cat. I6634). The K86415-001-R-J1-PDC line was cultured in 6D media, which includes all 6C/Colon 1B media components minus the L-WRN conditioned media. The 485176-168-R4-J1-PDC was cultured in PANC media, which includes all 6C/Colon 1B media plus 100 ng/mL human FGF-10 (PeproTech, cat. 100-26), 500 nM SB-431542 (Selleckchem, cat. S1067), and 10 nM gastrin (Tocris Bioscience, cat. 3006). […]
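Also: spheroids exposed to compounds for 7 days before viability read.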

Structure (SMILES): Cc1nc(N2CCC3(CC2)COC(C)C3N)c(CO)nc1Sc1ccnc(N)c1Cl (centres undefined) + CCn1c(-c2cccnc2C(C)OC)c2c3cc(ccc31)N1CCOC(CC(NC(=O)C(C(C)C)N(C)C(=O)C3(F)CCN(C(=O)C#CC(C)(C)N(C)C)CC3)C(=O)N3CCCC(N3)C(=O)OCC(C)(C)C2)C1
- IC50 (second compound 0.000949 µM): > 10 µM
- IC50 (second compound 0.003 µM): > 10 µM
- IC50 (second compound 0.00949 µM): > 10 µM
- IC50 (second compound 0.03 µM): > 10 µM
- IC50 (second compound 0.0949 µM): > 10 µM
- IC50 (second compound 0.3 µM): > 10 µM
- viability, T/C (second compound 0.000949 µM, first compound 0.0316 µM): 88.9%
- viability, T/C (second compound 0.000949 µM, first compound 0.1 µM): 85.4%
- viability, T/C (second compound 0.000949 µM, first compound 0.316 µM): 111%
- viability, T/C (second compound 0.000949 µM, first compound 1 µM): 104%
- viability, T/C (second compound 0.000949 µM, first compound 3.16 µM): 141%
- viability, T/C (second compound 0.000949 µM, first compound 10 µM): 131%
- viability, T/C (second compound 0.003 µM, first compound 0.0316 µM): 91.8%
- viability, T/C (second compound 0.003 µM, first compound 0.1 µM): 100%
- viability, T/C (second compound 0.003 µM, first compound 0.316 µM): 98.2%
- viability, T/C (second compound 0.003 µM, first compound 1 µM): 114%
- viability, T/C (second compound 0.003 µM, first compound 3.16 µM): 133%
- viability, T/C (second compound 0.003 µM, first compound 10 µM): 130%
- viability, T/C (second compound 0.00949 µM, first compound 0.0316 µM): 99.9%
- viability, T/C (second compound 0.00949 µM, first compound 0.1 µM): 130%
- viability, T/C (second compound 0.00949 µM, first compound 0.316 µM): 105%
- viability, T/C (second compound 0.00949 µM, first compound 1 µM): 113%
- viability, T/C (second compound 0.00949 µM, first compound 3.16 µM): 132%
- viability, T/C (second compound 0.00949 µM, first compound 10 µM): 128%
- viability, T/C (second compound 0.03 µM, first compound 0.0316 µM): 92.3%
- viability, T/C (second compound 0.03 µM, first compound 0.1 µM): 110%
- viability, T/C (second compound 0.03 µM, first compound 0.316 µM): 108%
- viability, T/C (second compound 0.03 µM, first compound 1 µM): 126%
- viability, T/C (second compound 0.03 µM, first compound 3.16 µM): 137%
- viability, T/C (second compound 0.03 µM, first compound 10 µM): 116%
- viability, T/C (second compound 0.0949 µM, first compound 0.0316 µM): 98.2%
- viability, T/C (second compound 0.0949 µM, first compound 0.1 µM): 123%
- viability, T/C (second compound 0.0949 µM, first compound 0.316 µM): 117%
- viability, T/C (second compound 0.0949 µM, first compound 1 µM): 127%
- viability, T/C (second compound 0.0949 µM, first compound 3.16 µM): 137%
- viability, T/C (second compound 0.0949 µM, first compound 10 µM): 101%
- viability, T/C (second compound 0.3 µM, first compound 0.0316 µM): 122%
- viability, T/C (second compound 0.3 µM, first compound 0.1 µM): 114%
- viability, T/C (second compound 0.3 µM, first compound 0.316 µM): 107%
- viability, T/C (second compound 0.3 µM, first compound 1 µM): 92.9%
- viability, T/C (second compound 0.3 µM, first compound 3.16 µM): 92.1%
- viability, T/C (second compound 0.3 µM, first compound 10 µM): 62.8%

Structure (SMILES): CCC(CC)c1cc(NC2CCC(N)C2)n2nccc2n1 (centres undefined) + C#Cc1c(F)ccc2cc(O)cc(-c3ncc4c(N5CC6CCC(C5)N6)nc(OCC56CCCN5CC(F)C6)nc4c3F)c12
- IC50 (second compound 0.0316 µM): 0.672 µM
- IC50 (second compound 0.1 µM): 0.564 µM
- IC50 (second compound 0.316 µM): < 0.0316 µM
- IC50 (second compound 1 µM): < 0.0316 µM
- IC50 (second compound 3.16 µM): < 0.0316 µM
- IC50 (second compound 10 µM): < 0.0316 µM
- viability, T/C (second compound 0.0316 µM, first compound 0.0316 µM): 79.8%
- viability, T/C (second compound 0.0316 µM, first compound 0.1 µM): 77.9%
- viability, T/C (second compound 0.0316 µM, first compound 0.316 µM): 79.6%
- viability, T/C (second compound 0.0316 µM, first compound 1 µM): 34.8%
- viability, T/C (second compound 0.0316 µM, first compound 3.16 µM): 3.07%
- viability, T/C (second compound 0.0316 µM, first compound 10 µM): 0.17%
- viability, T/C (second compound 0.1 µM, first compound 0.0316 µM): 56.6%
- viability, T/C (second compound 0.1 µM, first compound 0.1 µM): 77.6%
- viability, T/C (second compound 0.1 µM, first compound 0.316 µM): 69%
- viability, T/C (second compound 0.1 µM, first compound 1 µM): 32.4%
- viability, T/C (second compound 0.1 µM, first compound 3.16 µM): 2.77%
- viability, T/C (second compound 0.1 µM, first compound 10 µM): 0.13%
- viability, T/C (second compound 0.316 µM, first compound 0.0316 µM): 32.8%
- viability, T/C (second compound 0.316 µM, first compound 0.1 µM): 40%
- viability, T/C (second compound 0.316 µM, first compound 0.316 µM): 33.4%
- viability, T/C (second compound 0.316 µM, first compound 1 µM): 17.3%
- viability, T/C (second compound 0.316 µM, first compound 3.16 µM): 2.52%
- viability, T/C (second compound 0.316 µM, first compound 10 µM): 0.1%
- viability, T/C (second compound 1 µM, first compound 0.0316 µM): 16.6%
- viability, T/C (second compound 1 µM, first compound 0.1 µM): 21.3%
- viability, T/C (second compound 1 µM, first compound 0.316 µM): 19.9%
- viability, T/C (second compound 1 µM, first compound 1 µM): 11.3%
- viability, T/C (second compound 1 µM, first compound 3.16 µM): 2.86%
- viability, T/C (second compound 1 µM, first compound 10 µM): 0.14%
- viability, T/C (second compound 3.16 µM, first compound 0.0316 µM): 11.1%
- viability, T/C (second compound 3.16 µM, first compound 0.1 µM): 14%
- viability, T/C (second compound 3.16 µM, first compound 0.316 µM): 12.2%
- viability, T/C (second compound 3.16 µM, first compound 1 µM): 10.1%
- viability, T/C (second compound 3.16 µM, first compound 3.16 µM): 2.81%
- viability, T/C (second compound 3.16 µM, first compound 10 µM): 0.16%
- viability, T/C (second compound 10 µM, first compound 0.0316 µM): 9.8%
- viability, T/C (second compound 10 µM, first compound 0.1 µM): 9.61%
- viability, T/C (second compound 10 µM, first compound 0.316 µM): 8.97%
- viability, T/C (second compound 10 µM, first compound 1 µM): 6.36%
- viability, T/C (second compound 10 µM, first compound 3.16 µM): 2.12%
- viability, T/C (second compound 10 µM, first compound 10 µM): 0.21%
